Drawing on ChEMBL document CHEMBL1154790, “Lorneic acids, trialkyl-substituted aromatic acids from a marine-derived actinomycete” (J Nat Prod, 2009), this text covers inhibition and IC50 for two molecules.

Calls of active or inactive are those of the source. The calls are words filed in the database; no cut-off is given here.

Test [1] concerns the target T1, cGMP-specific 3',5'-cyclic phosphodiesterase (Homo sapiens, UniProt O76074). The test is described as follows: Inhibition of human platelet PDE5 assessed as [3H]cGMP to [3H]GMP conversion at 10 uM pretreated 15 mins before substrate addition measured after 20 mins.
In test [2] the target is T1, cGMP-specific 3',5'-cyclic phosphodiesterase. The test is described as follows: Inhibition of human platelet PDE5 assessed as [3H]cGMP to [3H]GMP conversion pretreated 15 mins before substrate addition measured after 20 mins.

`CCCC/C=C/c1cc(C)ccc1/C=C/CC(=O)O` [LORNEIC ACID A]: the inhibition result in test [1] was “Active”. In test [2], the IC50 (commonly the point on the concentration scale where inhibition reaches its midpoint) was 12.6 µM.

For the molecule `CCCCCC(O)c1cc(C)ccc1/C=C/CC(=O)O` (stereo not drawn) [LORNEIC ACID B], in test [2], the IC50 came out at 87.1 µM.
